Measurements published in PubChem BioAssay (NCI).
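The compound was tested at five concentrations on cells cultured in 96-well plates, with a 48-hour exposure period. TGI: total growth inhibition.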

What was measured:
Assay in all cases: NCI-60 cell line screen, 48 h
SF-295 CNS = test system: SF-295 CNS
U251 CNS = test system: U251 CNS
CCRF-CEM leukemia = test system: CCRF-CEM leukemia
NCI-H23 lung = test system: NCI-H23 lung
RXF 393 renal = test system: RXF 393 renal
OVCAR-4 ovarian = test system: OVCAR-4 ovarian
SK-MEL-5 melanoma = test system: SK-MEL-5 melanoma
HT29 colon = test system: HT29 colon
HCT-15 colon = test system: HCT-15 colon
KM20L2 colon = test system: KM20L2 colon
M14 melanoma = test system: M14 melanoma
RPMI-8226 leukemia = test system: RPMI-8226 leukemia
COLO 205 colon = test system: COLO 205 colon
IGROV1 ovarian = test system: IGROV1 ovarian
HCT-116 colon = test system: HCT-116 colon
HOP-62 NSCLC = test system: HOP-62 NSCLC
K-562 leukemia = test system: K-562 leukemia
LXFL 529 NSCLC = test system: LXFL 529 NSCLC
HOP-92 NSCLC = test system: HOP-92 NSCLC
SR leukemia = test system: SR leukemia
DMS 273 small cell lung = test system: DMS 273 small cell lung
UACC-257 melanoma = test system: UACC-257 melanoma
SK-MEL-28 melanoma = test system: SK-MEL-28 melanoma
SN12C renal = test system: SN12C renal
M19-MEL melanoma = test system: M19-MEL melanoma
MOLT-4 leukemia = test system: MOLT-4 leukemia
KM12 colon = test system: KM12 colon
SNB-19 CNS = test system: SNB-19 CNS
DLD-1 colon = test system: DLD-1 colon
OVCAR-8 ovarian = test system: OVCAR-8 ovarian
NCI-H460 lung = test system: NCI-H460 lung
SNB-78 CNS = test system: SNB-78 CNS
SNB-75 CNS = test system: SNB-75 CNS
DMS 114 small cell lung = test system: DMS 114 small cell lung
NCI-H226 lung = test system: NCI-H226 lung
786-0 renal = test system: 786-0 renal
LOX IMVI melanoma = test system: LOX IMVI melanoma
OVCAR-5 ovarian = test system: OVCAR-5 ovarian
HL-60(TB) leukemia = test system: HL-60(TB) leukemia
A549 NSCLC = test system: A549 NSCLC
UACC-62 melanoma = test system: UACC-62 melanoma
SW-620 colon = test system: SW-620 colon
ACHN renal = test system: ACHN renal
NCI-H522 lung = test system: NCI-H522 lung
SF-539 CNS = test system: SF-539 CNS
SF-268 CNS = test system: SF-268 CNS
HOP-18 NSCLC = test system: HOP-18 NSCLC
EKVX NSCLC = test system: EKVX NSCLC
A498 renal = test system: A498 renal
CAKI-1 renal = test system: CAKI-1 renal
SK-MEL-2 melanoma = test system: SK-MEL-2 melanoma
HCC-2998 colon = test system: HCC-2998 colon
OVCAR-3 ovarian = test system: OVCAR-3 ovarian
UO-31 renal = test system: UO-31 renal
MALME-3M melanoma = test system: MALME-3M melanoma
XF 498 CNS = test system: XF 498 CNS
TK-10 renal = test system: TK-10 renal
SK-OV-3 ovarian = test system: SK-OV-3 ovarian

## Cn1nc(-c2cccc(-c3nn(C)c(=NCCO)s3)n2)sc1=NCCO
SF-295 CNS
  TGI: > 100 µM
U251 CNS
  TGI: > 100 µM
CCRF-CEM leukemia
  TGI: > 100 µM
NCI-H23 lung
  TGI: > 100 µM
RXF 393 renal
  TGI: > 100 µM
OVCAR-4 ovarian
  TGI: > 100 µM
SK-MEL-5 melanoma
  TGI: > 100 µM
HT29 colon
  TGI: > 100 µM
HCT-15 colon
  TGI: > 100 µM
KM20L2 colon
  TGI: > 100 µM
M14 melanoma
  TGI: > 100 µM
RPMI-8226 leukemia
  TGI: > 100 µM
COLO 205 colon
  TGI: > 100 µM
IGROV1 ovarian
  TGI: > 100 µM
HCT-116 colon
  TGI: > 100 µM
HOP-62 NSCLC
  TGI: > 100 µM
K-562 leukemia
  TGI: > 100 µM
LXFL 529 NSCLC
  TGI: > 100 µM
HOP-92 NSCLC
  TGI: > 100 µM
SR leukemia
  TGI: > 100 µM
DMS 273 small cell lung
  TGI: > 100 µM
UACC-257 melanoma
  TGI: > 100 µM
SK-MEL-28 melanoma
  TGI: > 100 µM
SN12C renal
  TGI: > 100 µM
M19-MEL melanoma
  TGI: > 100 µM
MOLT-4 leukemia
  TGI: > 100 µM
KM12 colon
  TGI: > 100 µM
SNB-19 CNS
  TGI: > 100 µM
DLD-1 colon
  TGI: > 100 µM
OVCAR-8 ovarian
  TGI: > 100 µM
NCI-H460 lung
  TGI: > 100 µM
SNB-78 CNS
  TGI: > 100 µM
SNB-75 CNS
  TGI: > 100 µM
DMS 114 small cell lung
  TGI: > 100 µM
NCI-H226 lung
  TGI: > 100 µM
786-0 renal
  TGI: > 100 µM
LOX IMVI melanoma
  TGI: > 100 µM
OVCAR-5 ovarian
  TGI: > 100 µM
HL-60(TB) leukemia
  TGI: > 100 µM
A549 NSCLC
  TGI: > 100 µM
UACC-62 melanoma
  TGI: > 100 µM
SW-620 colon
  TGI: > 100 µM
ACHN renal
  TGI: > 100 µM
NCI-H522 lung
  TGI: > 100 µM
SF-539 CNS
  TGI: > 100 µM
SF-268 CNS
  TGI: > 100 µM
HOP-18 NSCLC
  TGI: > 100 µM
EKVX NSCLC
  TGI: > 100 µM
A498 renal
  TGI: > 100 µM

## COC1/C(=C\c2ccccc2I)c2ccccc2N1C(C)=O (centres undefined)
SF-295 CNS
  TGI: 29.2 µM
U251 CNS
  TGI: 42.6 µM
CCRF-CEM leukemia
  TGI: 59.1 µM
NCI-H23 lung
  TGI: 36.5 µM
RXF 393 renal
  TGI: 22.3 µM
OVCAR-4 ovarian
  TGI: 32.1 µM
HT29 colon
  TGI: 37.1 µM
HCT-15 colon
  TGI: 37.4 µM
KM20L2 colon
  TGI: 30 µM
RPMI-8226 leukemia
  TGI: 39.1 µM
COLO 205 colon
  TGI: 31.5 µM
IGROV1 ovarian
  TGI: 39.6 µM
HCT-116 colon
  TGI: 26.8 µM
HOP-62 NSCLC
  TGI: 32.7 µM
K-562 leukemia
  TGI: 53.3 µM
LXFL 529 NSCLC
  TGI: 87.4 µM
CAKI-1 renal
  TGI: 50 µM
HOP-92 NSCLC
  TGI: 8.99 µM
SR leukemia
  TGI: 42.9 µM
DMS 273 small cell lung
  TGI: 27.1 µM
UACC-257 melanoma
  TGI: 44.1 µM
SK-MEL-28 melanoma
  TGI: 38.3 µM
SN12C renal
  TGI: 28.8 µM
M19-MEL melanoma
  TGI: 42.4 µM
MOLT-4 leukemia
  TGI: 35.8 µM
KM12 colon
  TGI: 29 µM
SNB-19 CNS
  TGI: 60.4 µM
DLD-1 colon
  TGI: 43.4 µM
OVCAR-8 ovarian
  TGI: > 100 µM
NCI-H460 lung
  TGI: 33.5 µM
SNB-78 CNS
  TGI: 82.5 µM
SK-MEL-2 melanoma
  TGI: 32.5 µM
HCC-2998 colon
  TGI: 33.9 µM
SNB-75 CNS
  TGI: 55 µM
OVCAR-3 ovarian
  TGI: 31.2 µM
DMS 114 small cell lung
  TGI: 38.7 µM
786-0 renal
  TGI: 33.3 µM
HL-60(TB) leukemia
  TGI: 16.1 µM
A549 NSCLC
  TGI: 35.8 µM
UACC-62 melanoma
  TGI: 26.7 µM
SW-620 colon
  TGI: 39.2 µM
UO-31 renal
  TGI: 9.91 µM
ACHN renal
  TGI: > 100 µM
SF-539 CNS
  TGI: 31.2 µM
HOP-18 NSCLC
  TGI: 38.1 µM
EKVX NSCLC
  TGI: 39.6 µM
A498 renal
  TGI: 30.1 µM

## O=C1OCCC1(Cc1ccc(Cl)cc1)Cc1ccc(Cl)cc1
SF-295 CNS
  TGI: > 100 µM
U251 CNS
  TGI: > 100 µM
CCRF-CEM leukemia
  TGI: > 100 µM
NCI-H23 lung
  TGI: > 100 µM
OVCAR-4 ovarian
  TGI: > 100 µM
HT29 colon
  TGI: > 100 µM
M14 melanoma
  TGI: > 100 µM
RPMI-8226 leukemia
  TGI: > 100 µM
COLO 205 colon
  TGI: > 100 µM
IGROV1 ovarian
  TGI: > 100 µM
HCT-116 colon
  TGI: > 100 µM
HOP-62 NSCLC
  TGI: 89.2 µM
K-562 leukemia
  TGI: > 100 µM
MALME-3M melanoma
  TGI: > 100 µM
LXFL 529 NSCLC
  TGI: > 100 µM
CAKI-1 renal
  TGI: > 100 µM
HOP-92 NSCLC
  TGI: 96.3 µM
SR leukemia
  TGI: > 100 µM
XF 498 CNS
  TGI: 43.3 µM
TK-10 renal
  TGI: > 100 µM
UACC-257 melanoma
  TGI: > 100 µM
SK-MEL-28 melanoma
  TGI: > 100 µM
SN12C renal
  TGI: > 100 µM
M19-MEL melanoma
  TGI: > 100 µM
MOLT-4 leukemia
  TGI: > 100 µM
KM12 colon
  TGI: > 100 µM
SNB-19 CNS
  TGI: > 100 µM
SK-OV-3 ovarian
  TGI: > 100 µM
DLD-1 colon
  TGI: > 100 µM
OVCAR-8 ovarian
  TGI: > 100 µM
NCI-H460 lung
  TGI: > 100 µM
SNB-78 CNS
  TGI: > 100 µM
SK-MEL-2 melanoma
  TGI: > 100 µM
SNB-75 CNS
  TGI: 56.5 µM
OVCAR-3 ovarian
  TGI: > 100 µM
NCI-H226 lung
  TGI: > 100 µM
786-0 renal
  TGI: > 100 µM
OVCAR-5 ovarian
  TGI: > 100 µM
HL-60(TB) leukemia
  TGI: > 100 µM
A549 NSCLC
  TGI: > 100 µM
UACC-62 melanoma
  TGI: > 100 µM
SW-620 colon
  TGI: > 100 µM
UO-31 renal
  TGI: > 100 µM
ACHN renal
  TGI: > 100 µM
NCI-H522 lung
  TGI: > 100 µM
SF-268 CNS
  TGI: > 100 µM
EKVX NSCLC
  TGI: > 100 µM
A498 renal
  TGI: > 100 µM
